The text below walks through data of the OligoGym collection.

“And” between values parts separate entries of the source, which are not always exact repeats. Identical values can stand only once. After the bases stand the sugars from the 5' end (letter, count) and the backbone: PS all phosphorothioate, else s phosphorothioate and o phosphodiester by linkage. Methylation of C is not given here. e = 2'-O-(2-methoxyethyl) (MOE); k = constrained ethyl (cEt); d = 2'-deoxy (DNA)

This data set concerns the target SOD1. The settings on record: ASO.

As to “CTATACAAATCTTCCAA (sugars e3 k2 d7 k2 e3, PS)”, the target mRNA inhibition (HepG2, 3 µM) was 13%. Take “CTCCTGAGAGTGAGATCACA (sugars e5 d10 e5, PS)”: the target mRNA inhibition (HepG2, 5 µM) was 27%.

The sequence “CTCGAAATTGATGATGCCCT (sugars e5 d10 e5, PS)” gave a target mRNA inhibition (HepG2, 4 µM) of 31%.

Sequence “CTCGCCCACTCTGGCCCCAA (sugars e5 d10 e5, PS)” showed a target mRNA inhibition (HepG2, 4 µM) of 45%. As for “CTGCACTGGTACAGCCT (sugars e3 k2 d7 k2 e3, PS)”, the target mRNA inhibition (HepG2, 3 µM) worked out at 3%.

In turn, “CTGGCAAAATACAGGTC (sugars e2 k2 d9 k2 e2, PS)” displayed a target mRNA inhibition (HepG2, 5 µM) of 53%. “CTGGCAAAATACAGGTC (sugars e3 k2 d7 k2 e3, PS)”: the target mRNA inhibition (HepG2, 3 µM) stood at 18%. In turn, “CTGTGATTTAAGTCTGG (sugars e2 k2 d9 k2 e2, PS)” displayed a target mRNA inhibition (HepG2, 5 µM) of 61%. “CTTCCCCACACCTTCAC (sugars e3 k2 d7 k2 e3, PS)”: the target mRNA inhibition (HepG2, 3 µM) was 29%. On to “CTTCCCCACACCTTCACT (sugars e5 d8 e5, linkages s1 o3 s9 o2 s2)”, for which the target mRNA inhibition came out at 0% (A431, 0.12 µM); 8% (A431, 0.6 µM); 3% (A431, 3 µM); 0% (A431, 15 µM); 0% (HepG2, 0.222 µM); 8% (HepG2, 0.667 µM). Moreover, the target mRNA inhibition reads like this: (HepG2, 2 µM) 38%; (HepG2, 6 µM) 48%. For the setting “HepG2, 5 µM”, “CTTTTAAGATTACAGTG (sugars e2 k2 d8 k2 e3, PS)” displayed a target mRNA inhibition of 62%. With “CTTTTAAGATTACAGTG (sugars e2 k2 d9 k2 e2, PS)”, the target mRNA inhibition (HepG2, 5 µM) was found to be 53%.

“CTTTTAATAGCCTCATAATA (sugars e5 d10 e5, PS)” had a target mRNA inhibition (HepG2, 5 µM) of 0%. Regarding “CTTTTTCATGGACCACC (sugars e3 k2 d7 k2 e3, PS)”, for the setting “HepG2, 3 µM”, the target mRNA inhibition came out at 87%. Take “GAAATTCTGACAAGTTT (sugars e3 k2 d7 k2 e3, PS)”: for the setting “HepG2, 3 µM”, the target mRNA inhibition was determined as 14%. Turning to “GAATCTTCAATAGACACATC (sugars e5 d10 e5, PS)”, the target mRNA inhibition (HepG2, 5 µM) was 22% and 11%. Consider “GAATGTTTATTGGGCGA (sugars e2 k2 d8 k2 e3, PS)”, for which the target mRNA inhibition (HepG2, 4 µM) amounted to 47%. As to “GACAAAGAAATTCTGACAAG (sugars e5 d10 e5, PS)”, where the note is “HepG2, 5 µM”, the target mRNA inhibition was 8%. “GACAAGTTTAATACCCA (sugars e2 k2 d8 k2 e3, PS)” yielded a target mRNA inhibition (HepG2, 5 µM) of 54%.

Sequence “GACTACATCCAAGGGAA (sugars e3 k2 d7 k2 e3, PS)” returned a target mRNA inhibition (HepG2, 3 µM) of 19%. Under “HepG2, 4 µM”, “GAGACTACGACGCAAACCAG (sugars e5 d10 e5, PS)” returned a target mRNA inhibition of 23%.

Under “HepG2, 3 µM”, “GAGGACCTGCACTGGTA (sugars e3 k2 d7 k2 e3, PS)” gave a target mRNA inhibition of 17%. On to “GAGGTCCTGGTTCCGAGGAC (sugars e5 d10 e5, PS)”, for which the target mRNA inhibition (HepG2, 4 µM) turned out to be 31%.

In turn, “GAGTTTTATAAAACTAT (sugars e3 k2 d7 k2 e3, PS)” yielded a target mRNA inhibition (HepG2, 3 µM) of 6%.

As to “GATAACAGATGAGTTAA (sugars e2 k2 d9 k2 e2, PS)”, the target mRNA inhibition (HepG2, 4 µM) was found to be 28%.

“GATAACAGATGAGTTAA (sugars e3 k2 d7 k2 e3, PS)” gave a target mRNA inhibition (HepG2, 3 µM) of 11%.

In the case of “GATACATTTCTACAGCT (sugars e2 k2 d8 k2 e3, PS)”, the target mRNA inhibition (HepG2, 4 µM) was 64%. “GATACATTTCTACAGCTA (sugars e5 d8 e5, linkages s1 o3 s9 o2 s2)”: the target mRNA inhibition is 7% (A431, 0.12 µM); 15% (A431, 0.6 µM); 39% (A431, 3 µM); 52% (A431, 15 µM); 28% (HepG2, 0.222 µM); 59% (HepG2, 0.667 µM). This sequence also had a target mRNA inhibition (HepG2, 2 µM) of 73% and a target mRNA inhibition (HepG2, 6 µM) of 85%. With “GATAGAGGATTAAAGTG (sugars e3 k2 d7 k2 e3, PS)”, the target mRNA inhibition (HepG2, 3 µM) was determined as 8%. “GATCATAAATCAGTTTC (sugars e2 k2 d8 k2 e3, PS)” showed a target mRNA inhibition (HepG2, 5 µM) of 34%.

With “GATCCCAATTACACCAC (sugars e3 k2 d7 k2 e3, PS)”, where the note is “HepG2, 3 µM”, the target mRNA inhibition was determined as 3%.

Take “GATGCCCTGCACTGGGCCGT (sugars e5 d10 e5, PS)”: the target mRNA inhibition (HepG2, 4 µM) came out at 15%. The sequence “GATTAAAGTGAGGACCT (sugars e3 k2 d7 k2 e3, PS)” showed a target mRNA inhibition (HepG2, 3 µM) of 8%. Sequence “GATTACAGTGTTTAATG (sugars e2 k2 d9 k2 e2, PS)” showed a target mRNA inhibition (HepG2, 5 µM) of 61%.

As to “GATTACAGTGTTTAATG (sugars e3 k2 d7 k2 e3, PS)”, the target mRNA inhibition (HepG2, 3 µM) amounted to 10%. “GATTCTTTTAATAGCCTCAT (sugars e5 d10 e5, PS)” yielded a target mRNA inhibition (HepG2, 5 µM) of 4%. Sequence “GCAGGAGACTACGACGCAAA (sugars e5 d10 e5, PS)” came in with a target mRNA inhibition (HepG2, 4 µM) of 33%. As to “GCAGGATAACAGATGAG (sugars e2 k2 d8 k2 e3, PS)”, the target mRNA inhibition was determined as 26% (HepG2, 0.1875 µM); 67% (HepG2, 0.75 µM); 84% (HepG2, 3 µM); 79% (HepG2, 4 µM); 93% (HepG2, 12 µM). Consider “GCAGGATAACAGATGAG (sugars e2 k2 d9 k2 e2, PS)”, for which the target mRNA inhibition by setting is: (HepG2, 0.1875 µM) 31%; (HepG2, 0.75 µM) 75%; (HepG2, 3 µM) 90%; (HepG2, 4 µM) 86% and 83%; (HepG2, 12 µM) 89% and 97%. Consider “GCCCAAGTCATCTGCTT (sugars e3 k2 d7 k2 e3, PS)”, for which, for the setting “HepG2, 3 µM”, the target mRNA inhibition was 93%. For the sequence “GCCGTCGCCCTTCAGCA (sugars e2 k2 d8 k2 e3, PS)”, the target mRNA inhibition (HepG2, 4 µM) worked out at 64%.

Where the note is “HepG2, 3 µM”, “GCCTCAGACTACATCCA (sugars e3 k2 d7 k2 e3, PS)” showed a target mRNA inhibition of 43%. Regarding “GCGATCCCAATTACACC (sugars e2 k2 d9 k2 e2, PS)”, the target mRNA inhibition (HepG2, 4 µM) amounted to 58%. “GCGATCCCAATTACACC (sugars e3 k2 d7 k2 e3, PS)”: the target mRNA inhibition (HepG2, 3 µM) is 19%.

“GCTTGAATGACAAAGAA (sugars e2 k2 d9 k2 e2, PS)”: under “HepG2, 5 µM”, the target mRNA inhibition stood at 32%. For the sequence “GGAATGTTTATTGGGCG (sugars e2 k2 d9 k2 e2, PS)”, the target mRNA inhibition (HepG2, 4 µM) was 58%. In turn, “GGATAACAGATGAGTTAAGG (sugars e5 d10 e5, PS)” showed a target mRNA inhibition (HepG2, 5 µM) of 48%.

For “GGATACATTTCTACAGC (sugars e2 k2 d9 k2 e2, linkages s1 o3 s9 o1 s2)”, the target mRNA inhibition was 4% (A431, 0.12 µM); 12% (A431, 0.6 µM); 36% (A431, 3 µM); 51% (A431, 15 µM); 62% (HepG2, 0.222 µM); 78% (HepG2, 0.667 µM). The sequence also returned a target mRNA inhibition (HepG2, 2 µM) of 95% and a target mRNA inhibition (HepG2, 6 µM) of 91%. Take “GGATACATTTCTACAGC (sugars e4 d9 k2 e2, linkages s1 o3 s9 o1 s2)”: the target mRNA inhibition came to 0% (A431, 0.062 µM); 1% (A431, 0.185 µM); 13% (A431, 0.556 µM); 28% (A431, 1.667 µM); 42% (A431, 5 µM); 55% (A431, 15 µM). Moreover, the target mRNA inhibition is, setting by setting: (SH-SY5Y, 0.062 µM) 10%; (SH-SY5Y, 0.185 µM) 3%; (SH-SY5Y, 0.556 µM) 23%; (SH-SY5Y, 1.667 µM) 35%; (SH-SY5Y, 5 µM) 77%; (SH-SY5Y, 15 µM) 78%.

“GGATTCTTTTAATAGCC (sugars e2 k2 d9 k2 e2, PS)” showed a target mRNA inhibition (HepG2, 5 µM) of 19%.

Regarding “GGCCTCAGACTACATCC (sugars e2 k2 d8 k2 e3, PS)”, the target mRNA inhibition (HepG2, 4 µM) is 70%. For “GGCCTCAGACTACATCC (sugars e2 k2 d9 k2 e2, PS)”, the target mRNA inhibition reads like this: (HepG2, 0.1875 µM) 4%; (HepG2, 0.75 µM) 50%; (HepG2, 3 µM) 68%; (HepG2, 4 µM) 76%; (HepG2, 12 µM) 86%. “GGCCTCAGACTACATCC (sugars e3 k2 d7 k2 e3, PS)” had a target mRNA inhibition (HepG2, 3 µM) of 24%. As to “GGCGATCCCAATTACACCAC (sugars e5 d8 e7, linkages s1 o3 s10 o3 s2)”, the target mRNA inhibition (A431, 0.062 µM) turned out to be 0%; the target mRNA inhibition (A431, 0.185 µM) is 9%; the target mRNA inhibition (A431, 0.556 µM) came out at 0%; the target mRNA inhibition (A431, 1.667 µM) was 0%; the target mRNA inhibition (A431, 5 µM) amounted to 4%; the target mRNA inhibition (A431, 15 µM) came out at 0%. For the same sequence, the target mRNA inhibition stood at 5% (SH-SY5Y, 0.062 µM); 2% (SH-SY5Y, 0.185 µM); 16% (SH-SY5Y, 0.556 µM); 25% (SH-SY5Y, 1.667 µM); 36% (SH-SY5Y, 5 µM); 61% (SH-SY5Y, 15 µM). In the case of “GGCTTGAATGACAAAGA (sugars e2 k2 d9 k2 e2, PS)”, the target mRNA inhibition (HepG2, 5 µM) was determined as 44%. “GGTCCTGGTTCCGAGGACTG (sugars e5 d10 e5, PS)” gave a target mRNA inhibition (HepG2, 4 µM) of 14%. Sequence “GGTTCCGAGGACTGCAACGG (sugars e5 d10 e5, PS)” yielded a target mRNA inhibition (HepG2, 4 µM) of 35%. As to “GGTTTTTATTCACAGGC (sugars e2 k2 d8 k2 e3, PS)”, the target mRNA inhibition (HepG2, 5 µM) came out at 38%. On the same count and under the same terms, with “GTCACACAATTACACTT (sugars e2 k2 d9 k2 e2, PS)” the figure was 35%; with “GTCATTGAAACAGACAT (sugars e2 k2 d8 k2 e3, PS)”, 2%. In turn, “GTCTCCAACATGCCTCT (sugars e3 k2 d7 k2 e3, PS)” came in with a target mRNA inhibition (HepG2, 3 µM) of 8%.

In turn, “GTCTGGCAAAATACAGG (sugars e2 k2 d8 k2 e3, PS)” showed a target mRNA inhibition (HepG2, 5 µM) of 30%.
